Laboratory results as given in PMC5707067, “Farnesyl phenolic enantiomers as natural MTH1 inhibitors from Ganoderma sinense” (Oncotarget, 2017).

Key:
[1] = system: human osteosarcoma cells (U2OS); assay: CCK8 cytotoxicity assay, U2OS; type: cell-based; details: CCK8, 48 h, carcinoma cell line
Description: (§1) The growth inhibitory effects of the isolated farnesyl phenolic compounds (1–8) against carcinoma cell lines [human osteosarcoma cells (U2OS), human colorectal carcinoma cells (SW620), human ES-2 ovarian carcinoma cells (ES-2)] and normal tissue cell lines [human hepatic cells (Lo2), African green monkey kidney vero cells (Vero)] were further investigated using CCK8 assay method (Table 3).
(§2) Carcinoma cell lines [human osteosarcoma cells (U2OS), human colorectal carcinoma cells (SW620), human ES-2 ovarian carcinoma cells (ES-2)] and normal tissue cell lines [human hepatic cells (Lo2), African green monkey kidney Vero cells (Vero)] The U2OS, SW620, ES-2, Lo2 and Vero were obtained from ATCC (Manassas, VA, USA). The SW620 and Vero cells were cultured in Roswell Park Memorial Institute medium (RPMI), with 10% fetal bovine serum (Hyclone) and 1% penicillin-streptomycin (Sigma). Lo2, U2OS and ES-2 cells were grown in Dulbecco's modified eagle medium (DMEM), with 10% fetal bovine serum (Hyclone) and 1% penicillin-streptomycin (Sigma). All of these cells were cultured at 37°C in a humidified atmosphere with 5% CO2. For CCK8 assay cytotoxicity evaluation of compounds, all cells were separately plated at a density of 1 × 10^4 cells/well in a 96 well plate. Cells were cultivated at 37°C in 5% CO2 atmosphere for 24 h, then medium in the wells was replaced with fresh medium containing compounds which were diluted in 8 dilution steps covering the range from 200 μM to 1.5625 μM. And DMSO was used as negative control. After 48 h incubation, 10 μL of CCK8 solution was added to each well. After 30 min, the optical density (OD) of each well was measured at wavelength of 450 nm on spectrophotometer. Data were corrected for background (no-cell control) and expressed as a percentage of the value for untreated cells. The IC50 values of the isolated compounds were derived from the mean OD values of the triplicate tests versus the drug concentration curves.

[2] = system: human colorectal carcinoma cells (SW620); assay: CCK8 cytotoxicity assay, SW620; type: cell-based; details: CCK8, 48 h, carcinoma cell line
Description: as §1, §2

[3] = system: human ES-2 ovarian carcinoma cells (ES-2); assay: CCK8 cytotoxicity assay, ES-2; type: cell-based; details: CCK8, 48 h, carcinoma cell line
Description: as §1, §2

[4] = system: human hepatic cells (Lo2); assay: CCK8 cytotoxicity assay, Lo2; type: cell-based; details: CCK8, 48 h, normal tissue cell line
Description: as §1, §2

[5] = system: African green monkey kidney vero cells (Vero); assay: CCK8 cytotoxicity assay, Vero; type: cell-based; details: CCK8, 48 h, normal tissue cell line
Description: as §1, §2

[6] = CCK8 cytotoxicity assay, Lo2; type: cell-based, human; details: human, Lo2 human hepatic cells (normal tissue cell line), CCK8, 48 h
Description: as §1, §2

[7] = CCK8 cytotoxicity assay, Vero; type: cell-based, African green monkey; details: African green monkey, Vero kidney cells (normal tissue cell line), CCK8, 48 h
Description: as §1, §2

MTH1 [8] = molecular target: T1, MTH1 (Homo sapiens, UniProt P36639); assay: Microscale thermophoresis (MST) binding assay
Procedure: Microscale thermophoresis method (MST) was employed to assay the binding affinity between the compounds and MTH1. […] The dissociation constant Kd values were automatically calculated by using the NT Analysis software (Nano Temper Technologies, München, Germany).
Recombinant human MTH1 was labeled with the Monolith NT™ Protein Labeling Kit RED (Cat#L001) according to the supplied labeling protocol [32]. Labelled MTH1 was kept constant at 100 nM, while all samples tested were diluted in a 20 mM HEPES (pH 7.5) and 0.05 (v/v) % Tween-20. Compounds were diluted in 12 dilution steps covering the range from 500 μM to 200 nM. After 10 min incubation at room temperature about 37°C, samples were loaded into Monolith™ standard-treated capillaries and the thermophoresis was measured at 25°C after 30 min incubation on a Monolith NT.115 instrument (NanoTemper Technologies, München, Germany). Laser power was set to 20% using 30 seconds on-time. The LED power was set to 100%. The dissociation constant Kd values were fitted by using the NTAnalysis software (NanoTemper Technologies, München, Germany). The Kd value of the binding was obtained in two ways. The first way was calculated by thermophoresis curve when there was no fluorescent change during the initial fluorescence scanning. The second way was calculated from the initial fluorescence scanning curve when compounds bound in the sites which directly interfered the fluorescence.

MTH1 [9] = molecular target: T1, MTH1; assay: Enzyme inhibition assay (8-oxo-dGTP hydrolysis, HPLC); type: biochemical; set-up: hexa-histidine (His6) (N, cleaved yes); made in house; host or cells: E. coli BL21 Star; details: 8-oxo-dGTP 25 μM, purified MTH1
Procedure: Microscale thermophoresis method (MST) was employed to assay the binding affinity between the compounds and MTH1. This technology can quantify protein-protein interactions or protein-small molecule interactions with high sensitivity through detecting fluorescent changes of molecules during thermophoresis.
To identify the efficacy of the eight compounds, an enzyme inhibition assay was carried out. […] Then the reaction was stop by the addition of 20 μL ice-cold Na2EDTA (50 mM). The reaction mixture was centrifugated at 15000 rpm at 4°C for 10 min. 20 μL of supernatant was injected on an HPLC column (Ultimate AQ-C18 RP-18e, 250 mm × 4.6 mm × 5 μm), and eluted isolate with 100 mM Na2HPO4-NaOH (pH 5.5)/MeOH 95:5 with flow rate 1 mL/min at column room of 30°C. […] Measurements were done in triplet, and IC50 values were calculated to compare the efficiency of various compounds.

[10] = Homo sapiens, Ovarian carcinoma cell

| Structure (SMILES) | IC50 [1] [µM] | IC50 [2] [µM] | IC50 [3] [µM] | IC50 [4] [µM] | IC50 [5] [µM] | IC50 ([1]; Homo sapiens, U2OS) [µM] | IC50 ([2]; Homo sapiens, SW-620) [µM] | IC50 [3, 10] [µM] | IC50 at 48 h [6] [µM] | IC50 at 48 h [7] [µM] | Kd (MTH1 [8]) [µM] | IC50 (MTH1 [9]) [µM] |
| --- | --- | --- | --- | --- | --- | --- | --- | --- | --- | --- | --- | --- |
| C[C@H](Oc1cc(-c2cnn(C3CCNCC3)c2)cnc1N)c1c(Cl)ccc(F)c1Cl [(S)-crizotinib, reference compound] | 32.3 ± 1.28 | 17.5 ± 1.11 | 9.09 ± 1.06 | 26 ± 1.2 | 16.7 ± 1.15 | – | – | – | – | – | – | – |
| CO[C@@]1(c2cc(O)cc(O)c2)C=C(CCCC(CO)CC/C=C(\C)COC(=O)/C=C/c2ccc(O)cc2)C(=O)O1 (stereo partly drawn) [Compound 2, (5S)-3-{9-[(E)-coumaroyl]-4-hydroxymethyl-8-methyl-7-nonene}-5-(3,5-dihydroxyphenyl)-5-methoxy-2(5H)-furanone] | – | – | – | – | – | 54.2 ± 1.1 | 104 ± 1.07 | 76.8 ± 1.09 | > 300 | 260.4 ± 1.16 | 2.38 ± 0.663 | 11 ± 1.03 |
| C/C(=C\CCC(CO)CCCC1=C[C@H](c2cc(O)ccc2O)OC1=O)COC(=O)/C=C/c1ccc(O)cc1 (stereo partly drawn) [Compound 3, (5R)-3-{9-[(E)-coumaroyl]-4-hydroxymethyl-8-methyl-7-nonene}-5-(2,5-dihydroxyphenyl)-2(5H)-furanone] | – | – | – | – | – | 73.2 ± 1.24 | 70.9 ± 1.08 | 90.6 ± 1.12 | > 300 | > 300 | 246 ± 38.7 | 22.9 ± 1.04 |
| C/C(=C\CCC(CO)CCCC1=C[C@@H](c2cc(O)ccc2O)OC1=O)COC(=O)/C=C/c1ccc(O)cc1 (stereo partly drawn) [Compound 4, (5S)-3-{9-[(E)-coumaroyl]-4-hydroxymethyl-8-methyl-7-nonene}-5-(2,5-dihydroxyphenyl)-2(5H)-furanone] | – | – | – | – | – | 66.4 ± 1.11 | 56.5 ± 1.15 | 64.2 ± 1.28 | 279.1 ± 2.17 | > 300 | 4.63 ± 0.519 | 22.9 ± 1.07 |
| CO[C@]1(c2cc(O)ccc2O)C=C(CCCC(CO)CC/C=C(\C)COC(=O)/C=C/c2ccc(O)cc2)C(=O)O1 (stereo partly drawn) [Compound 5, (5R)-3-{9-[(E)-coumaroyl]-4-hydroxymethyl-8-methyl-7-nonene}-5-(2,5-dihydroxyphenyl)-5-methoxy-2(5H)-furanone] | – | – | – | – | – | 64.4 ± 1.08 | – | 80.1 ± 3.56 | > 300 | > 300 | 296 ± 13.3 | 16.3 ± 1.03 |
| CO[C@@]1(c2cc(O)ccc2O)C=C(CCCC(CO)CC/C=C(\C)COC(=O)/C=C/c2ccc(O)cc2)C(=O)O1 (some centres unmarked) [Compound 6] | – | – | – | – | – | 57.8 ± 1.07 | 53.7 ± 1.06 | 37.3 ± 3.56 | > 300 | > 300 | 113 ± 25.4 | 8.62 ± 1.03 |
| CO[C@]1(c2cc(O)cc(O)c2)C=C(CC/C=C(\CO)CC/C=C(\C)COC(=O)/C=C/c2ccc(O)cc2)C(=O)O1 [Compound 7] | – | – | – | – | – | 96.3 ± 1.13 | 101 ± 1.07 | 74.5 ± 1.17 | > 300 | > 300 | 103 ± 32.1 | 28.5 ± 1.05 |
| CO[C@@]1(c2cc(O)cc(O)c2)C=C(CC/C=C(\CO)CC/C=C(\C)COC(=O)/C=C/c2ccc(O)cc2)C(=O)O1 [Compound 8] | – | – | – | – | – | 95.4 ± 1.05 | 55.2 ± 1.16 | 60.9 ± 1.34 | > 300 | > 300 | 210 ± 42.7 | 26.6 ± 1.03 |
